{"source": "paper PMC4853610", "about": "“Systemic Dosing of Thymosin Beta 4 before and after Ischemia Does Not Attenuate Global Myocardial Ischemia-Reperfusion Injury in Pigs” (Frontiers in Pharmacology, 2016)", "key": {"[1]": {"system": "global myocardial ischemia-reperfusion injury", "type": "in vivo, pig", "method": "The lung was displaced and the pericardium opened. […] Blood lactate levels were monitored to ensure adequate perfusion. […] After weaning, the animals were decannulated. […] The thoracotomy wound was closed in three layers. […] MRI study was performed at 1.5 T system (Philips GyroscanIntera Nova Dual MR, Philips Medical Systems, Best, The Netherlands) with a phased-array torso coil and a vector cardiographic method for ECG-gating. All acquisitions were obtained during short breath hold periods. Each MRI study consisted of cine imaging of both ventricles for volumetrics and wall motion at rest. Late enhancement (LE) imaging was applied for scar assessment. […] A phase-sensitive inversion recovery T1-TFE pulse sequence was applied for LE imaging 10 min after injecting gadoterate meglumine (Dotarem 279.3 mg/mL, Guerbet, Roissy CdG, France) with a dose 0.3 mmol/kg. The following imaging parameters were used: prospective gating, TR/TE 4.0/1.2 ms, flip angle 15°, acquisition matrix 168 × 256, reconstruction matrix 256 × 256, FOV 320-360 mm, rFOV 100%, 8-15 slices/breath hold, slice thickness 6 mm, and gap 0 mm. TI was optimized individually using a TI-scout sequence. The whole LV was covered by LE images at SA orientation."}, "[2]": {"assay": "Completion of the 30 h follow-up period", "type": "in vivo, pig", "conditions": "TB4 treatment group n = 6; one died after weaning from CPB (bradycardia), one 20 h after reperfusion (circulatory failure)", "description": "Ten landrace pigs weighing 29–43 kg were operated on and divided into a TB4 treatment group (n = 6) and a control group (n = 4). All animal experiments were approved by the Laboratory Animal Care & Use Committee of the State Provincial Office of Southern Finland.\n(§1) The lung was displaced and the pericardium opened. […] Blood lactate levels were monitored to ensure adequate perfusion. […] After weaning, the animals were decannulated. […] The thoracotomy wound was closed in three layers."}, "coronary arteries": {"system": "coronary arteries", "assay": "Artery wire myography, coronary arteries", "set-up": "species or system pig", "description": "(§2) Eighteen representative segments of small mesentery arteries and coronary arteries (250–350 μm in diameter) from 4 blood-donor pigs were studied by wire myography for contractile responses to TB4 in vitro. Samples were excised rapidly and placed in ice-cold oxygenated Krebs solution. The composition of the Krebs solution was as follows (in mM): 119 NaCl, 4.7 KCl, 25 NaHCO3, 1.2 NaH2PO4, 2.5 CaCl2, 1.2 MgSO4, and 5.5 glucose. Arterial rings (2 mm in length) were mounted using 40 μm wires in a microvessel myograph (Danish Myograph Technologies, Aarhus, Denmark) for isometric tension recordings. After mounting, vessels were equilibrated, normalized and contracted repeatedly with 62 mM potassium chloride until maximal and reproducible contractions were obtained. To examine the contracting effects of TB4, dose-response curves to TB4 (10-8-10-2 M) were constructed and compared to KCl-induced contraction. Relaxation was studied in thromboxane (TXA2) precontracted arterial rings. The precontraction was adjusted to 20–40% of the reference contraction to 62 mM KCl, which after cumulative concentrations of TB4 was added to the organ bath. To evaluate the role of NO on the effects of TB4 induced vasodilation, experiments were repeated in arteries incubated with L-NNA, a NO synthase inhibitor (100 μM, 30 min). Data were collected and analyzed using Powerlab and Chart5 softwares (ADI Instruments, Colorado Springs, CO, USA)."}, "[3]": {"system": "global myocardial ischemia-reperfusion injury", "assay": "Cardiac 15O-water PET, myocardial blood flow", "type": "in vivo", "conditions": "pig; 25 h post-reperfusion; n = 4; mean ± SD; p = 0.86 vs control", "method": "as §1\nThe pigs underwent cardiac PET scans 25–26 h post-reperfusion to determine MBF during rest and adenosine stress. PET studies were performed with ECAT EXACT HR+ scanner (Siemens-CTI, Knoxville, TN, USA). Myocardial perfusion was evaluated by PET with ^15O-radiolabeled water (808 ± 129 MBq) both at rest and during intravenous adenosine stress (200 μg/kg/min). The acquisition frames were as follows: 14 × 5 s, 3 × 10 s, 3 × 20 s, and 4 × 30 s (total duration 4 min 40 s). The acquired PET data were reconstructed in 2D mode with an iterative reconstruction algorithm OSEM using six iteration and 16 subsets in the reconstruction. The transaxial field of view (35 cm) was reconstructed in a 128 × 128 matrix, yielding a pixel size of 2.57 mm × 2.57 mm. The measurements were corrected for scatter, random counts, and dead time. The device produces 63 axial planes with a slice thickness of 2.43 mm. Global myocardial perfusion (ml/g/min) was measured using Carimas 2 software (Turku PET Centre, Turku, Finland^1)."}, "[4]": {"system": "global myocardial ischemia-reperfusion injury", "conditions": "pig, TB4 6 mg/kg i.v. twice, n = 4, mean ± SD", "protocol": "The pigs were pre-anesthetized with an intramuscular injection of 100 mg xylazin (Rompun vet, Bayer Animal Health GmbH, Leverkusen, Germany) and 25 mg midazolam (Midazolam Hameln, Hameln pharmaceuticals GmbH, Hameln, Germany). A peripheral ear vein was cannulated and the animals were medicated with 20 mg boluses of propofol (PropofolLipuro, B. Braun Melsungen AG, Melsungen, Germany) and 150 μg phentanyl (Fentanyl-Hameln, Hameln pharmaceuticals GmbH, Hameln, Germany) and were then intubated and connected to a respirator (Dräger Oxylog 3000, Drägerwerk AG, Lübeck, Germany). The respiratory rate was set to 18–22 times/min with a tidal volume of 8–10 ml/kg using 40% oxygen. Blood gases were monitored to ensure adequate ventilation (i-STAT, Abbott Laboratories, Abbott Park, IL, USA). Anesthesia was maintained with a continuous infusion of propofol 15–30 mg/kg/h, phentanyl 1.5 μg/kg/h and midazolam 100 μg/kg/h. Preoperatively and every 8 h thereafter the animals received antibiotic prophylaxis (Cefuroxime 750 mg, Orion Pharma, Espoo, Finland). Before the heart was cannulated 10000 IU of heparin (Heparin, LEO Pharma, Ballerup, Denmark) was given as a bolus and the dose was repeated every 30 min during extracorporeal circulation. […]\nThe pigs were placed in a left lateral decubitus position and the chest was shaved and disinfected. […] Blood lactate levels were monitored to ensure adequate perfusion. […]"}, "[5]": {"assay": "Serum TB4 concentration by EIA after intravenous infusion", "conditions": "pig, 6 mg/kg", "protocol": "The pigs were pre-anesthetized with an intramuscular injection of 100 mg xylazin (Rompun vet, Bayer Animal Health GmbH, Leverkusen, Germany) and 25 mg midazolam (Midazolam Hameln, Hameln pharmaceuticals GmbH, Hameln, Germany). A peripheral ear vein was cannulated and the animals were medicated with 20 mg boluses of propofol (PropofolLipuro, B. Braun Melsungen AG, Melsungen, Germany) and 150 μg phentanyl (Fentanyl-Hameln, Hameln pharmaceuticals GmbH, Hameln, Germany) and were then intubated and connected to a respirator (Dräger Oxylog 3000, Drägerwerk AG, Lübeck, Germany). […] Anesthesia was maintained with a continuous infusion of propofol 15–30 mg/kg/h, phentanyl 1.5 μg/kg/h and midazolam 100 μg/kg/h. […] TB4 (supplied by RegeneRx Biopharmaceuticals Inc, Rockville, MD, USA) was suspended in sterile water to a concentration of 4 mg/ml (0.82 mM) and administered 6 mg/kg through a 15 min intravenous infusion 30 min before the start of the operation and 6 h later.\nSerial serum samples were collected from two animals in both groups for pharmacokinetic studies of TB4 by EIA. The serum was prepared and analyzed as parallel samples according to the manufacturers’ manual (Thymosin β4 EIA Kit, Immundiagnostik AG, Bensheim, Germany). A coefficient of variation (calculated as: sample SD/sample mean) of less than 50% between parallel samples was accepted for final analysis."}, "[6]": {"conditions": "statement in discussion; ref Cierniewski et al., 2012; cited from earlier work", "description": "Thymosin beta 4 is normally found in the cytosol and also in the nucleus of cells but lacks a signal sequence for exocytosis. It is unclear whether the high concentrations found in extracellular fluids, is due to active secretion of the peptide or secondary to degranulation of inflammatory cells or cell membrane rupture ([Watts et al., 1990]; [Huff et al., 2001]). TB4 is water soluble and rapidly internalized by endothelial cells in vitro where it binds to actin and participates in the dynamics of the cytoskeleton ([Cierniewski et al., 2012]). At very high concentrations there is also some bin ..."}, "small mesentery arteries": {"system": "small mesentery arteries", "assay": "Artery wire myography, small mesentery arteries", "set-up": "species or system pig", "description": "as §2"}, "[7]": {"system": "global myocardial ischemia-reperfusion injury", "assay": "Cardiomyocyte apoptosis by TUNEL after CPB and aortic cross-clamping", "type": "in vivo", "conditions": "pig; TB4 6 mg/kg i.v. twice; 30 h post-reperfusion; mean ± SD; p = 0.20 vs other group", "method": "as §1\nTransmural tissue samples from the left and right ventricles were collected and fixed in formalin. Hematoxylin and eosin staining was performed for general histological analysis. Cardiomyocyte apoptosis was determined by terminal transferase nick end-labeling assay (TUNEL) as previously described ([Gavrieli et al., 1992]; [Saraste et al., 1997]). Positive apoptotic nuclei were counted over an ocular grid and presented as a percentage of total cardiomyocyte number in 10 randomly selected microscopic visual high power (×40) fields by an investigator blinded to group assignments."}, "citrated whole blood": {"system": "citrated whole blood", "assay": "Rotem thromboelastometry in vitro (EXTEM, INTEM, FIBTEM)", "set-up": "species or system pig", "conditions": "for maximum clot firmness, FIBTEM: 1 h room temperature, platelets inhibited, three animals, mean ± SD", "method": "Rotem®thromboelastometry (Tem Innovations GmbH, Basel, Switzerland) analysis was performed in vitro on blood samples from three blood-donor animals. TB4 was added to citrated whole blood to achieve two different concentrations (0.1 mM and 1 mM) and incubated at room temperature for 1 h. Untreated blood samples served as controls. The samples were analyzed and three parameters were drawn from the results at 60 min: Maximum clot firmness (stability of the blood clot), clotting time (time to clot formation), and maximum lysis of the blood clot. Assays used were EXTEM, INTEM, and FIBTEM. EXTEM measures the activity of the extrinsic pathway with tissue factor activation and INTEM of the intrinsic pathway with contact activation. FIBTEM is used for the assessment of fibrinogen status by complete platelet inhibition."}, "[8]": {"conditions": "after intraperitoneal administration; ref Mora et al., 1997; cited from earlier work", "method": "The preferred dosing range of TB4 seems to be 2–12 mg/kg both when using single and repeated strategies. […] We wanted to condition the heart before the operation and also affect the immediate post-operative reperfusion period and gave the animals two doses of TB4. Under physiological conditions, concentrations of the peptide in plasma and se ..."}, "[9]": {"conditions": "TB4 0.1 mM and 1 mM in whole blood"}}}
{"smiles": "CC[C@H](C)[C@H](NC(=O)[C@H](CCC(=O)O)NC(=O)[C@H](C)NC(=O)[C@H](CCSC)NC(=O)[C@H](CC(=O)O)NC(=O)[C@@H]1CCCN1C(=O)[C@H](CCCCN)NC(=O)[C@H](CC(=O)O)NC(=O)[C@H](CO)NC(C)=O)C(=O)N[C@@H](CCC(=O)O)C(=O)N[C@@H](CCCCN)C(=O)N[C@@H](Cc1ccccc1)C(=O)N[C@@H](CC(=O)O)C(=O)N[C@@H](CCCCN)C(=O)N[C@@H](CO)C(=O)N[C@@H](CCCCN)C(=O)N[C@@H](CC(C)C)C(=O)N[C@@H](CCCCN)C(=O)N[C@@H](CCCCN)C(=O)N[C@H](C(=O)N[C@@H](CCC(=O)O)C(=O)N[C@H](C(=O)N[C@@H](CCC(N)=O)C(=O)N[C@@H](CCC(=O)O)C(=O)N[C@@H](CCCCN)C(=O)N[C@@H](CC(N)=O)C(=O)N1CCC[C@H]1C(=O)N[C@@H](CC(C)C)C(=O)N1CCC[C@H]1C(=O)N[C@@H](CO)C(=O)N[C@@H](CCCCN)C(=O)N[C@@H](CCC(=O)O)C(=O)N[C@H](C(=O)N[C@H](C(=O)N[C@@H](CCC(=O)O)C(=O)N[C@@H](CCC(N)=O)C(=O)N[C@@H](CCC(=O)O)C(=O)N[C@@H](CCCCN)C(=O)N[C@@H](CCC(N)=O)C(=O)N[C@@H](C)C(=O)NCC(=O)N[C@@H](CCC(=O)O)C(=O)N[C@@H](CO)C(=O)O)[C@@H](C)CC)[C@@H](C)O)[C@@H](C)O)[C@@H](C)O", "note": "[TB4, Thymosin beta 4]", "values": [{"measurement": "gadolinium contrast uptake on late-enhancement scans", "setting": "[1]; 28 h post-reperfusion, any of the animals", "value": "No uptake of gadolinium contrast was observed"}, {"measurement": "valvular abnormalities on cardiac MRI", "setting": "[1]; pig, in vivo", "value": "One animal in the TB4 group had mild tricuspid valve regurgitation"}, {"measurement": "left ventricle ejection fraction", "setting": "[1]; pig, 28 h post-reperfusion, n = 4, mean ± SD, p = 0.45 vs control", "value": "61.9 ± 10.6", "unit": "%"}, {"measurement": "LVESV", "setting": "[1]; pig, 28 h post-reperfusion, n = 4, mean ± SD, p = 0.49", "value": "23.3 ± 8.7", "unit": "mL"}, {"measurement": "LVEDV", "setting": "[1]; pig, 28 h post-reperfusion, n = 4, mean ± SD, p = 0.58", "value": "60.1 ± 6.8", "unit": "mL"}, {"measurement": "animals not completing the follow-up period", "setting": "[2]", "value": "two animals did not complete the follow-up period"}, {"measurement": "relaxation of coronary arteries", "setting": "coronary arteries; TXA2 precontracted porcine coronary rings, TB4 alone", "value": "modest endothelium-dependent relaxation"}, {"measurement": "relaxation of coronary arteries with nitric oxide synthase inhibitor", "setting": "coronary arteries; arteries incubated with L-NNA 100 μM, 30 min", "value": "abolished"}, {"measurement": "vasoconstriction in coronary arteries", "setting": "coronary arteries; dose-response to TB4 compared to KCl-induced contraction", "value": "nor did it induce vasoconstriction"}, {"measurement": "global myocardial blood flow during rest", "setting": "[3]", "value": "1.92 ± 0.38", "unit": "mL/g/min"}, {"measurement": "cTnT plasma concentration 6 h post-reperfusion", "setting": "[4]; p = 0.27", "value": "437 ± 291", "unit": "ng/L"}, {"measurement": "cTnT plasma concentration 24 h post-reperfusion", "setting": "[4]; p = 0.55", "value": "305 ± 75", "unit": "ng/L"}, {"measurement": "level at time molar at 0.25 h", "setting": "[5]", "value": 960, "unit": "nM"}, {"measurement": "level at time molar at 1 h", "setting": "[5]", "value": 1250, "unit": "nM"}, {"measurement": "solubility in water", "setting": "[6]", "value": "water soluble"}, {"measurement": "vasodilatation in mesenteric arteries", "setting": "small mesentery arteries; TXA2 precontracted arterial rings, cumulative TB4 concentrations", "value": "did not, however, induce vasodilatation"}, {"measurement": "contractile response, % of maximum potassium chloride stimulation", "setting": "small mesentery arteries; mesenteric arteries, TB4 0.1–1 mM, reference 62 mM KCl, arteries from four animals", "value": "15–30%"}, {"measurement": "influence on vasoconstriction or vasodilation at physiological concentrations", "setting": "small mesentery arteries; physiological concentrations of TB4, mesentery and coronary arteries", "value": "did not observe any influence"}, {"measurement": "TUNEL-positive apoptotic cells, right ventricle", "setting": "[7]", "value": "0.94 ± 0.33", "unit": "%"}, {"measurement": "blood clotting time", "setting": "citrated whole blood; [9]", "value": "did not have an effect"}, {"measurement": "maximal blood clot fibrinolysis", "setting": "citrated whole blood; [9]", "value": "did not have an effect"}, {"measurement": "maximum clot firmness, FIBTEM", "setting": "citrated whole blood; TB4 0.1 mM in citrated whole blood", "value": "37.3 ± 5.9", "unit": "mm"}, {"measurement": "maximum clot firmness, FIBTEM", "setting": "citrated whole blood; TB4 1 mM in citrated whole blood", "value": "27.7 ± 4.2", "unit": "mm"}, {"measurement": "time of maximal tissue concentration in heart", "setting": "[8]", "value": 2, "unit": "h"}]}
